In one test the target is T1, 5-HT Transporter (Rattus norvegicus, UniProt P31652).
T1 construct: ability to displace ^3H-paroxetine from male rat cortical membranes; from tissue; host or cells: male rat cortex (membranes)
The experiment in a line: 3H-paroxetine displacement, affinity for the serotonin transporter. Format: binding. The settings on record: male rat cortical membranes.

The target of a further test is T2, human 5-HT1A receptors (Homo sapiens, UniProt P08908).
T2 construct: expressed in transfected cells; host or cells: CHO cells, stably transfected
T2 sequence (P08908 1-422): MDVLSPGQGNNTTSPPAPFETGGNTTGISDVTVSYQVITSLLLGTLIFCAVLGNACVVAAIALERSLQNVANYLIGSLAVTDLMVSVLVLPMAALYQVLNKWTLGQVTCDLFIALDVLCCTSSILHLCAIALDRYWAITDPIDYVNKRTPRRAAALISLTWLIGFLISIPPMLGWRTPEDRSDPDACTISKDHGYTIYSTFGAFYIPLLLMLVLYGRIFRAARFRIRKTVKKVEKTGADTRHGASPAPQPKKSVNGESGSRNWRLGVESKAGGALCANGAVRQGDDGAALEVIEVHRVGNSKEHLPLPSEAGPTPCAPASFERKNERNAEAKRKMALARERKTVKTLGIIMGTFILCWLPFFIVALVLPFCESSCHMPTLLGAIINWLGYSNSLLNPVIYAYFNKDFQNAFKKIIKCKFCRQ
Description: [3H] 8-OH-DPAT displacement, affinity for the 5-HT1A receptor. In kind it is binding. The settings on record: CHO cells stably transfected with human 5-HT1A receptors. The source says: High affinity for the serotonin 5-HT1A receptor was established by testing the claimed compound's ability to displace [^3H] 8-OH-DPAT (dipropylaminotetralin) from the 5-HT1A serotonin receptor following a modification of the procedure of Hall et al. (J. Neurochem., 1985, 44: 1685) which utilizes CHO cells stably transfected with human 5-HT1A receptors.

Test [1] has as its target T3, cloned human 5-HT1A receptors (Homo sapiens, UniProt P08908).
T3 construct: expressed in transfected cells
T3 sequence (P08908 1-422): T2 sequence (P08908 1-422)
Description: 35S-GTPγS binding assay, agonist activity at 5-HT1A receptors. In kind it is biochemical. The note with it: membranes containing cloned human 5-HT1A receptors; for pEC50: read-out: 5-HT1A Function EC50. The source says:
The agonist activity at 5-HT1A receptors was established by using a ^35S-GTPγS binding assay similar to that used by Lazareno and Birdsall (Br. J. Pharmacol., 1993, 109:1120). The binding assay determines the test compound's ability to affect the binding of ^35S-GTPγS to membranes containing cloned human 5-HT1A receptors. Agonists produce an increase in binding whereas antagonists produce no increase but rather reverse the effects of the standard agonist 8-OH-DPAT. The test compound's maximum stimulatory effect is represented as the Emax, while its potency is defined by the EC50.

Each structure is given as a SMILES string. pEC50, pKi: −log10 of the molar value.

T1 sequence (P31652 whole entry): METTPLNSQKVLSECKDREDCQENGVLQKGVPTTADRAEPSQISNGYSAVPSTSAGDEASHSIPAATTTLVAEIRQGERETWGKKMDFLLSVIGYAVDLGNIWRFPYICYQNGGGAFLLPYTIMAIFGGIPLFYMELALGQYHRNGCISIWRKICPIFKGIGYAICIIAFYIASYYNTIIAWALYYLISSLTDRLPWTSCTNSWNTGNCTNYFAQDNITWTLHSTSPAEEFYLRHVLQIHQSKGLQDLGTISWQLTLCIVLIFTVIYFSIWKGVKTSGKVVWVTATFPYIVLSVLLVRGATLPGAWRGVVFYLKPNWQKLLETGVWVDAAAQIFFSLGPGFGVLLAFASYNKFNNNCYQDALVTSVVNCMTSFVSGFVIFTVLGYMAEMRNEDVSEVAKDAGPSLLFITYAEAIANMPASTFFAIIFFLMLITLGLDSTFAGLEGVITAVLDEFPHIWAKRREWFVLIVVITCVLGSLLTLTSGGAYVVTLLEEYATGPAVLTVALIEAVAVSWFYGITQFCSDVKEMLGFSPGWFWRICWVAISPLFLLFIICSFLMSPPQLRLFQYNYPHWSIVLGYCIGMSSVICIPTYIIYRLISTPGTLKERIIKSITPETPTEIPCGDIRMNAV

Consider `Fc1ccc2[nH]cc(CCCNC3COc4c(ccc5ncccc45)C3)c2c1` (single isomer, unassigned; (-)) [Compound 7b, (−)-N-[3-(5-fluoro-1H-indol-3-yl)propyl]-3,4-dihydro-2H-pyrano[2,3-f]quinolin-3-amine], for which the pKi on 5-HT Transporter was 8.38; on human 5-HT1A receptors it was 7.79. Besides, in test [1], the pEC50 was 6.77. In addition, the “5-HT1A Function Emax (maximum stimulatory effect)” value in test [1] (value in parentheses, in % (unit assumed)) was found to be 100.
`CCCN(CCCc1c[nH]c2ccc(F)cc12)C1COc2ccc3ncccc3c2C1` (centres unmarked) [Compound 2, N-[3-(5-fluoro-1H-indol-3-yl)propyl]-N-propyl-2,3-dihydro-1H-pyrano[3,2-f]quinolin-2-amine]: the results for the pKi at 5-HT Transporter and at human 5-HT1A receptors were 8.19 and 7.04, respectively. Also, the negative-log EC50 (pEC50) in test [1] is 5.65. The maximal response (Emax) in test [1] (value in parentheses, read-out: 5-HT1A Function Emax (maximum stimulatory effect)) was found to be 100%.

These data come from patent US7227023B2, “Quinoline 3-amino chroman derivatives” (Wyeth, priority 2003, dated 2007).
